Measurements published in paper PMC7353089, “The Hepatotoxicity of Alantolactone and Germacrone: Their Influence on Cholesterol and Lipid Metabolism in Differentiated HepaRG Cells” (Nutrients, 2020).

Tests used:
Assay type in all cases: cell-based, human
Conditions in all cases: multiple exposure: four applications every 24 h, analyzed 12 h after the last; 30 μM ATL, 100 μM GER, 20 μM LOV
[1] = tested on: HMGCR mRNA; assay: RT-qPCR mRNA expression in dHepaRG cells
Protocol: The mRNA and protein expression changes were measured after a single administration of ALA and GER. Three concentrations were selected for each compound (non-toxic, non-toxic/slightly toxic and toxic). The cholesterol level of the dHepaRG cells was measured after a multiple exposure of the highest non-toxic concentrations of tested compounds. ATL (30 µM) and GER (100 µM) were administered four times every 24 h. The expression changes of genes and proteins related to cholesterol metabolism were measured in both single and multiple exposure experiments.
All treatments were performed in triplicates and every experiment was performed three times. The cells were washed twice with ice cold phosphate-buffered saline (PBS), scrapped and stored at −80 °C until use. Total RNA from cells was isolated using TriReagent according to the manufacturer’s instructions (Biotech, Prague, Czech Republic). The purified RNA was dissolved in 40 µL of diethyl pyrocarbonate (DEPC)-treated water (0.01% DEPC in HPLC water, autoclaved) and stored at −80 °C. The measurement of absorbance at 260 and 280 nm using the NanoDrop ND-1000 UV–VIS Spectrophotometer (Thermo Fisher Scientific, Pardubice, Czech Republic) was used to determine RNA yields and purity. Subsequently, the RNA (4 µg) was treated with 2 U of DNase I (New England Biolabs, Ipswich, MA, USA) in a final volume of 30 µL for 25 min at 37 °C, 1.5 µL of 0.1 M ethylenediaminetetraacetic acid was added and the DNAse was inactivated by heat (5 min at 75 °C). The solution was diluted to a concentration of 0.1 µg/µL. The DNAse treated RNA was stored at −80 °C until further analyses. […] Fluorescence data were recorded at the end of each amplification step. Relative expression levels of the target genes were calculated as fold changes in triplicates for each group using the 2^−ΔΔCt method by normalization to the geometric mean of the Ct values of Sdha and Ywhaz, which were used as reference genes.

[2] = tested on: HMGCS mRNA; assay: RT-qPCR mRNA expression in dHepaRG cells
Protocol: Three concentrations were selected for each compound (non-toxic, non-toxic/slightly toxic and toxic). The cholesterol level of the dHepaRG cells was measured after a multiple exposure of the highest non-toxic concentrations of tested compounds. […] The expression changes of genes and proteins related to cholesterol metabolism were measured in both single and multiple exposure experiments.
All treatments were performed in triplicates and every experiment was performed three times. The cells were washed twice with ice cold phosphate-buffered saline (PBS), scrapped and stored at −80 °C until use. Total RNA from cells was isolated using TriReagent according to the manufacturer’s instructions (Biotech, Prague, Czech Republic). The purified RNA was dissolved in 40 µL of diethyl pyrocarbonate (DEPC)-treated water (0.01% DEPC in HPLC water, autoclaved) and stored at −80 °C. The measurement of absorbance at 260 and 280 nm using the NanoDrop ND-1000 UV–VIS Spectrophotometer (Thermo Fisher Scientific, Pardubice, Czech Republic) was used to determine RNA yields and purity. Subsequently, the RNA (4 µg) was treated with 2 U of DNase I (New England Biolabs, Ipswich, MA, USA) in a final volume of 30 µL for 25 min at 37 °C, 1.5 µL of 0.1 M ethylenediaminetetraacetic acid was added and the DNAse was inactivated by heat (5 min at 75 °C). The solution was diluted to a concentration of 0.1 µg/µL. The DNAse treated RNA was stored at −80 °C until further analyses. The first strand cDNA was synthesized from 800 ng of total RNA and 1 µL of 50 µM random hexamers (Generi Biotech, Hradec Kralove, Czech Republic) using ProtoScript II reverse transcriptase (New England Biolabs, Ipswich, MA, USA). After the initial heat denaturation of total RNA (65 °C for 5 min), 4 µL of 5× ProtoScript II RT Reaction Buffer, 2 µL of 10× dithiothreitol (DTT), 2 µL of deoxynucleotide (dNTP) Mix 5 mM, 3.5 µL of H2O, and 0.5 µL of ProtoScript II 200 U/µL were added and mixed by pipetting. The reactions (20 µL) were incubated for 10 min at 25 °C, for 50 min at 42 °C, and for 5 min at 80 °C. The obtained cDNAs were diluted 1:6 by DEPC water. The qPCR analyses were carried out using QuantStudio 6 Flex (Applied Biosystems, Foster City, CA, USA) with SYBR green I (Xceed qPCR SG Mix, Institute of Applied Biotechnologies, Prague, Czech Republic) detection according to the manufacturer’s protocol. […] Fluorescence data were recorded at the end of each amplification step. Relative expression levels of the target genes were calculated as fold changes in triplicates for each group using the 2^−ΔΔCt method [28] by normalization to the geometric mean of the Ct values of Sdha and Ywhaz, which were used as reference genes.

[3] = tested on: SREBP-2 (F); assay: Western blot protein level in dHepaRG cells
Protocol: All the treatments were performed in triplicates. Protein concentration was measured using the bicinchoninic acid (BCA) protein assay (Sigma Aldrich, Prague, Czech Republic) according to the manufacturer’s instructions. The proteins were loaded onto a 10% sodium dodecyl sulfate (SDS; w/v)–polyacrylamide gel (with 4% stacking gel) and separated by SDS-PAGE electrophoresis. The proteins were transferred onto a nitrocellulose membrane using wet blot (100 V, 90 min). The membrane blocking was performed in a 5% non-fat dry milk/TRIS-buffered saline-Tween-20 (TBS-T) solution at room temperature for 2 h. Incubation with primary antibodies was accomplished overnight at 10 °C. β-actin was used as housekeeping protein (the list of primary antibodies in Table S2). Afterwards, the membrane was washed with 0.05% TBS-T solution for 6 × 5 min, incubated with respective secondary antibodies conjugated with horseradish peroxidase (bovine anti-rabbit (sc2370, Santa Cruz Biotechnology, Santa Cruz, CA, USA) at room temperature for 1.5 h, and rinsed with TBS-T solution for 6 × 5 min. Visualization of protein bands was carried out using a chemiluminescence kit (GE Healthcare, Buckinghamshire, UK).

## CC[C@H](C)C(=O)O[C@H]1C[C@@H](C)C=C2C=C[C@H](C)[C@H](CC[C@@H]3C[C@@H](O)CC(=O)O3)[C@H]21 [LOV, lovastatin, reference compound]
[1]
  HMGCR mRNA level: decreased significantly
[2]
  HMGCS mRNA level: decreased significantly
[3]
  SREBP-2 (F) protein level: decreased
